One compound from patent publication US20210298332A1, “AGENT FOR SUPPRESSING HEAT-RESISTANT ACIDOPHILIC BACTERIA, METHOD FOR PREVENTING CONTAMINATION WITH HEAT-RESISTANT ACIDOPHILIC BACTERIA, AND BEVERAGE” (SUNTORY HOLDINGS LIMITED, priority 2018, published 2021) can be followed below.

≈ marks a conversion by molar mass, not a printed value.

In general, MIC refers to the lowest concentration that inhibits growth of the organism.

The assay deals with Thermo-Acidophilic Bacilli (Alicyclobacillus acidoterrestris ATCC 49025). Nature of the assay: Evaluation of antibacterial action (agar plate dilution MIC). The class given is cell-based. As to the method:
Thermo-Acidophilic Bacilli (Alicyclobacillus acidoterrestris ATCC 49025) were pre-incubated as test bacteria (conditions: YSG broth, 50±1° C., two days, aerobic conditions), so that a test bacterial solution was obtained. A 10 mg/mL xanthohumol solution and serial two-fold dilutions thereof were prepared using 99.5% ethanol. Each of the solution and dilutions was added to a medium (YSG agar medium) whose temperature is maintained at 50±1° C. after being sterilized and dissolved at a ratio of 1/99 (volume of xanthohumol solution/volume of medium solution) and mixed sufficiently. The resulting mixtures were each dispensed into a petri dish and solidified, whereby agar plate media were produced. Each of the agar plate media was smeared with the pre-incubated test bacterial solution, followed by incubation at 50±1° C. for five days under aerobic conditions. The lowest concentration where the growth of the bacteria was prevented was taken as the minimum inhibitory concentration (MIC).

As for `COc1cc(O)c(CC=C(C)C)c(O)c1C(=O)/C=C/c1ccc(O)cc1` [Xanthohumol], the “growth of Thermo-Acidophilic Bacilli” value is listed as “inhibit the growth”. Moreover, the MIC (ATCC49025, 120 h, YSG agar medium, 50±1° C., five days, aerobic conditions) was 3.13 µg/mL (≈ 8.83 µM).
